# “Also recorded” adds a separate entry of the source.
# System: Caerulein-induced pancreatitis
# Experiment: Pretreatment with ADM inducers in caerulein-induced pancreatitis: histology (ADM) and CD45 infiltration
# Assay type: in vivo, mice
# Conditions: 40 mg/kg b.i.d oral gavage before and during Caerulein; 24 hours after end of Caerulein injections
# Description: Epigenetic modifiers: Recently, the emerging role of epigenetic regulation has led to the development of a wide spectrum of small molecules targeting selectively bromodomain and extra-terminal (BET) protein family which are currently under evaluation in preclinical model of hematological malignancies and solid tumors (Asangani et al., 2014; Delmore et al., 2011; Filippakopoulos et al., 2010). Leveraging the persistent chromatin modifications induced by an acute inflammatory event, the possibility of limiting the detrimental effects of repeated pancreatitis was tested through the administration of INCB054329, a BRD4 inhibitor currently in phase I-II clinical studies in patients with advanced malignancies (Falchook et al., 2019).
# Induction of acute pancreatitis. […] Control mice received injections of pyrogen-free PBS. Mice were examined daily for health conditions and sacrificed at the indicated time points by CO2 asphyxiation and cervical dislocation.
# DAPI nuclear counterstaining was also performed.
compound,measurement,value
Cc1noc(C)c1-c1ccc2[nH]c(=O)n3c2c1OC[C@@H]3c1ccccn1 [INCB054329],ADM induction (histological evaluation),massive induction of ADM; also recorded: significant ADM induction
same,inflammatory infiltration (CD45 immunostaining),dramatic reduction of inflammatory infiltration; also recorded: strong suppression of inflammation

# Reference: US20230190718A1, “METHODS FOR THE TREATMENT OF PANCREATITIS AND PREVENTION OF PANCREATIC CANCER” (BOARD OF REGENTS, THE UNIVERSITY OF TEXAS SYSTEM, priority 2020, published 2023)
